Experimental data published in the NIST ThermoML archive (doi:10.1021/je200811n).

Settings: Hot wire method

C=C(F)C(F)(F)F [2,3,3,3-tetrafluoro-1-propene]
Settings	thermal conductivity [W/m/K]
283.75 K, 88 kPa, Gas	0.0125
283.88 K, 199 kPa, Gas	0.01243
283.93 K, 20590 kPa, Liquid	0.07977
283.98 K, 395 kPa, Gas	0.01256
284.1 K, 309 kPa, Gas	0.01245
284.15 K, 20592 kPa, Liquid	0.07943
284.2 K, 89 kPa, Gas	0.01254
284.31 K, 197 kPa, Gas	0.01245
284.67 K, 91 kPa, Gas	0.01256
291.15 K, 109 kPa, Gas	0.01341
291.17 K, 246 kPa, Gas	0.01364
291.37 K, 109 kPa, Gas	0.01324
291.37 K, 244 kPa, Gas	0.01349
291.59 K, 242 kPa, Gas	0.01339
291.6 K, 109 kPa, Gas	0.01311
291.83 K, 240 kPa, Gas	0.01331
291.85 K, 109 kPa, Gas	0.01303
292.07 K, 238 kPa, Gas	0.01328
292.07 K, 432 kPa, Gas	0.01333
292.1 K, 109 kPa, Gas	0.01299
292.1 K, 342 kPa, Gas	0.01323
292.36 K, 109 kPa, Gas	0.0132
292.39 K, 429 kPa, Gas	0.01328
292.43 K, 342 kPa, Gas	0.01327
292.51 K, 245 kPa, Gas	0.01312
292.67 K, 538 kPa, Gas	0.01326
292.73 K, 428 kPa, Gas	0.01333
292.74 K, 109 kPa, Gas	0.01324
292.78 K, 343 kPa, Gas	0.01325
292.88 K, 243 kPa, Gas	0.01315
293.03 K, 536 kPa, Gas	0.01339
293.08 K, 428 kPa, Gas	0.01323
293.14 K, 109 kPa, Gas	0.01331
293.15 K, 343 kPa, Gas	0.01331
293.28 K, 241 kPa, Gas	0.01321
293.38 K, 532 kPa, Gas	0.01333
293.46 K, 428 kPa, Gas	0.01337
293.55 K, 343 kPa, Gas	0.01331
293.57 K, 109 kPa, Gas	0.01327
293.7 K, 239 kPa, Gas	0.01323
294.03 K, 109 kPa, Gas	0.01333
301.39 K, 199 kPa, Gas	0.01436
301.41 K, 95 kPa, Gas	0.01419
301.62 K, 199 kPa, Gas	0.0142
301.64 K, 95 kPa, Gas	0.01403
301.86 K, 199 kPa, Gas	0.0141
301.88 K, 95 kPa, Gas	0.01395
301.95 K, 868 kPa, Liquid	0.06212
301.98 K, 5731 kPa, Liquid	0.06593
302.03 K, 10752 kPa, Liquid	0.06904
302.06 K, 867 kPa, Liquid	0.06223
302.08 K, 16026 kPa, Liquid	0.07261
302.09 K, 5728 kPa, Liquid	0.0658
302.11 K, 199 kPa, Gas	0.01401
302.13 K, 10752 kPa, Liquid	0.06936
302.14 K, 95 kPa, Gas	0.01385
302.16 K, 648 kPa, Gas	0.0142
302.18 K, 16021 kPa, Liquid	0.0724
302.26 K, 510 kPa, Gas	0.01411
302.37 K, 199 kPa, Gas	0.01396
302.38 K, 350 kPa, Gas	0.01405
302.42 K, 95 kPa, Gas	0.01379
302.43 K, 868 kPa, Liquid	0.06253
302.45 K, 5727 kPa, Liquid	0.06616
302.47 K, 10752 kPa, Liquid	0.06961
302.48 K, 635 kPa, Gas	0.01423
302.5 K, 16022 kPa, Liquid	0.07296
302.54 K, 20560 kPa, Liquid	0.07444
302.56 K, 199 kPa, Gas	0.01413
302.58 K, 865 kPa, Liquid	0.06226
302.58 K, 5727 kPa, Liquid	0.06624
302.59 K, 510 kPa, Gas	0.01416
302.6 K, 10751 kPa, Liquid	0.06953
302.62 K, 16020 kPa, Liquid	0.0724
302.66 K, 20555 kPa, Liquid	0.07461
302.74 K, 350 kPa, Gas	0.01409
302.78 K, 95 kPa, Gas	0.01418
302.82 K, 634 kPa, Gas	0.01428
302.93 K, 199 kPa, Gas	0.01415
302.94 K, 510 kPa, Gas	0.01416
302.96 K, 5727 kPa, Liquid	0.06618
302.96 K, 10747 kPa, Liquid	0.06954
302.97 K, 16018 kPa, Liquid	0.07247
302.98 K, 865 kPa, Liquid	0.0622
303.01 K, 20553 kPa, Liquid	0.07485
303.11 K, 350 kPa, Gas	0.01412
303.13 K, 5725 kPa, Liquid	0.06595
303.13 K, 10746 kPa, Liquid	0.06929
303.13 K, 16018 kPa, Liquid	0.0723
303.15 K, 20550 kPa, Liquid	0.07489
303.16 K, 864 kPa, Liquid	0.0621
303.17 K, 638 kPa, Gas	0.01429
303.31 K, 509 kPa, Gas	0.01414
303.33 K, 199 kPa, Gas	0.01417
303.5 K, 16015 kPa, Liquid	0.07239
303.51 K, 350 kPa, Gas	0.01407
303.51 K, 10746 kPa, Liquid	0.06924
303.51 K, 20552 kPa, Liquid	0.07485

Liquid
Settings	thermal conductivity [W/m/K]
293.15 K	0.06515
303.15 K	0.06204
